# According to US7772285B2, “Benzophenone derivatives or salts thereof” (Toyama Chemical Co., Ltd., priority 2001, dated 2010):
# Key:
# [1] = molecular target: T1, AP-1 complex (Fos/Jun peptide) (Homo sapiens, UniProt P01100+P05412); test: Effect on AP-1 binding activity to AP-1 recognition sequence (ELISA); conditions: inhibition of binding of digoxigenin-labeled AP-1 binding sequence oligonucleotide to Fos/Jun peptide, absorbance 492 nm, read-out: Concentration (μM) at 50% inhibition
# T1 construct: made in house; host or cells: chemical peptide synthesis (no expression host)
# T1 sequence (P01100 137-200 limits assumed): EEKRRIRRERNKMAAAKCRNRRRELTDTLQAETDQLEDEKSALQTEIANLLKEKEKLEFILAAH
# T1 sequence (P05412 252-315 limits assumed): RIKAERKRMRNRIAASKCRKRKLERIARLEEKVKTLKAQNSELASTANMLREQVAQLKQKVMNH
# Procedure: Test Example 1 Effect on AP-1 Binding Activity to AP-1 Recognition Sequence (ELISA)
# Jun peptide and Fos peptide with its N-terminal labeled with biotin via 4 glycine residues containing a DNA binding site [Nature, Vol. 373, 1995, 257-261] were synthesized. Each of the peptides was dissolved in Tris buffer [20 mM Tris-hydrochloric acid (pH 7.5), 50 mM potassium chloride, 1 mM ethylenediaminetetraacetic acid, 10 mM magnesium chloride, 1 mM dithiothreitol, 0.5 M guanidinohydrochloric acid, 30% glycerol], and equimolar amounts of the peptide solutions were mixed with each other to be used as an AP-1 complex (Fos/Jun peptide). The AP-1 complex was added onto a 96-well avidin-coated ELISA plate (10 pmol/well). The plate was washed, blocked by bovine serum albumin, and used for binding assay.
# Digoxigenin-labeled double-stranded oligonucleotide (22mer) that contained AP-1 binding sequence (3′-TGAGTCA-5′) synthesized by conventional procedure was reacted in binding reaction solution [25 mM tris-hydrochloric acid (pH 7.9), 0.5 mM ethylenediaminetetraacetic acid, 0.05% Nonidet P-40, 10% glycerol] for 30 minutes at room temperature in the presence or absence of samples. After the reaction, unbound labeled oligonucleotide was removed by washing with HEPES buffer containing 0.05% Tween-20. Then peroxidase-labeled anti-digoxigenin antibody was added to react with the labeled oligonucleotide bound to AP-1. After removing excess antibody by washing with HEPES buffer containing 0.05% Tween-20, incubation was conducted for a certain period with o-phenylene diamine as a substrate in 100 mM citric acid buffer (pH 5.0) containing hydrogen peroxide, sulfuric acid solution was added to each well, and the absorbance (492 nm) was measured. Inhibition rate of each sample was calculated from the absorbance obtained in the binding assay carried out in the presence of the sample, taking the absorbance obtained in the absence of the sample=100%.
# [2] = system: Male DBA/1J mice; test: Type II collagen-induced arthritis in mouse; type: in vivo; conditions: 10 mg/kg orally once a day from 21 to 35 days after the initial inoculation, vs control group; for Bone destruction inhibition rate: X-ray bone destruction score 36 days after initial inoculation; for Arthritis inhibition rate: arthritis score on 36 days after initial inoculation
# Procedure: Test Example 2 Type II Collagen-Induced Arthritis in Mouse
# Male DBA/1J mice aged 8 weeks (Charles River Japan) were used. To a solution of 2 mg/mL bovine type II collagen in 0.1 mol/L acetic acid (Koken), an […] of Freund's complete adjuvant (DIFCO) was added to prepare an emulsion, and 0.2 ml of the emulsion was subcutaneously injected in the tail root region of each mouse. The same treatment was given 21 days after the initial inoculation to induce arthritis in the mice. Test compounds were each suspended in 0.5% methylcellulose solution, and 10 mg/kg of each test compound was given orally to mice once a day from 21 to 35 days after the initial inoculation. To a control group (a negative control group), 0.5% methylcellulose solution was given in the same manner.
# Taking the maximum score as 12, the arthritis score was calculated to evaluate the severity of arthritis that was evaluated in the following manner: score 0: no change; score 1: swelling on one or two toes, or slight swelling in the carpal and tarsal joints; score 2: swelling and rubor in more joints; score 3: extensive swelling over whole foreleg or hindleg; and total of the four legs was calculated.
# X-ray photographs of four paws were taken 36 days after the initial inoculation, and the severity of bone destruction was evaluated as bone destruction score on a maximum scale, the sum of the points for extremities, of 105 points: 0 or 0.5 points in accordance with presence or absence of osteoporosis in the joints and their vicinity, and for bone erosion, no change at 0 point; “partial bone destruction” at 1 point and “complete bone destruction” at 2 points in the second to fifth interdigital joints, the first to fifth metacarpal and metatarsal joints, and carpal, tarsal and calcaneal regions. Inhibition rate was calculated using the following equation: Inhibition rate(%)=100−(score of the group given the test compound/score of the control group)×100
Compound,IC50 [1],Bone destruction inhibition rate [2],Arthritis inhibition rate [2]
"O=C(O)CCc1cc(C(=O)c2ccc(OC3CCCC3)cc2O)ccc1OCc1ccc(C(=O)O)cc1O [32(1), 4-({2-(2-carboxyethyl)-4-[4-(cyclopentyloxy)-2-hydroxybenzoyl]phenoxy}methyl)-3-hydroxybenzoic acid]",310 µM,,
O=C(O)CCc1ccc(COc2ccc(C(=O)c3ccc(OC4CCCC4)cc3O)cc2CCC(=O)O)cc1 [49(1)],330 µM,,
Cc1cc(C(=O)O)ccc1COc1ccc(C(=O)c2ccc(OC3CCCC3)cc2O)cc1CCC(=O)O [49(3)],240 µM,,
CC(C)COc1ccc(C(=O)c2ccc(OCc3ccc(C(=O)NS(C)(=O)=O)cc3)c(CCC(=O)O)c2)c(O)c1 [49(8)],320 µM,,
CC(C)COc1ccc(C(=O)c2ccc(OCc3ccc(C(=O)O)cc3)c(CCC(=O)O)c2)c(OCC(C)C)c1 [49(9)],490 µM,,
COc1cc(COc2ccc(C(=O)c3ccc(OC4CCCC4)cc3O)cc2CCC(=O)O)ccc1CCC(=O)O [49(11)],390 µM,,
CC(Oc1ccc(C(=O)c2ccc(OC3CCCC3)cc2O)cc1CCC(=O)O)c1ccc(C(=O)O)cc1 (centres unmarked) [49(12)],700 µM,76%,50%
O=C(O)CCc1cc(C(=O)c2ccc(-c3cccs3)cc2O)ccc1OCc1ccc(C(=O)O)cc1 [49(16)],380 µM,,
CC(C)(C)COc1ccc(C(=O)c2ccc(OCc3ccc(C(=O)O)cc3)c(CCC(=O)O)c2)c(O)c1 [49(19)],280 µM,,
O=C(O)CCc1cc(C(=O)c2ccc(OC3CCCCC3)cc2O)ccc1OCc1ccc(C(=O)O)cc1 [49(20)],320 µM,,
O=C(O)CCc1cc(C(=O)c2ccc(CC3CCCC3)cc2O)ccc1OCc1ccc(C(=O)O)cc1 [49(22)],200 µM,,
O=C(O)CCc1cc(C(=O)c2ccc(OCC3CCCC3)cc2O)ccc1OCc1ccc(C(=O)O)cc1 [49(29)],220 µM,,
O=C(O)CCc1cc(C(=O)c2ccc(C3CCCC3)cc2O)ccc1OCc1ccc(C(=O)O)cc1 [49(39)],360 µM,,
O=C(O)CCc1cc(C(=O)c2ccc(OCc3ccco3)cc2O)ccc1OCc1ccc(C(=O)O)cc1 [49(40)],280 µM,,
CC(C)COc1cc(COc2ccc(C(=O)c3ccc(OC4CCCC4)cc3O)cc2CCC(=O)O)ccc1C(=O)O [49(46)],320 µM,,
CC(C)COc1ccc(C(=O)c2ccc(OCc3ccc(C(=O)O)cc3)c(CCC(=O)O)c2)c(O)c1 [49(47)],460 µM,,
CC(C)COc1ccc(C(=O)c2ccc(OCc3ccc(C(=O)NO)cc3)c(CCC(=O)O)c2)c(O)c1 [49(48)],310 µM,,

Compound,IC50 [1],Bone destruction inhibition rate [2],Arthritis inhibition rate [2]
O=C(O)CCc1cc(C(=O)c2ccc(OC3CCCC3)cc2O)ccc1OCc1ccc(C(=O)O)cc1F [49(51)],300 µM,,
O=C(O)CCc1cc(C(=O)c2ccc(OC3CCCC3)cc2O)ccc1OCc1ccc(S(=O)(=O)O)cc1 [49(54)],270 µM,,
O=C(O)CCc1cc(C(=O)c2ccc(OCC3CCCCC3)cc2O)ccc1OCc1ccc(C(=O)O)cc1 [49(56)],130 µM,,
O=C(O)CCc1cc(C(=O)c2ccc(OC3CCCCCC3)cc2O)ccc1OCc1ccc(C(=O)O)cc1 [49(58)],190 µM,,
CS(=O)(=O)NC(=O)c1ccc(COc2ccc(C(=O)c3ccc(OC4CCCC4)cc3O)cc2CCC(=O)O)cc1 [49(62)],580 µM,,
O=C(O)CCc1cc(C(=O)c2ccc(OC3CCCC3)cc2O)ccc1OCc1ccc2[nH]c(=O)[nH]c(=O)c2c1 [49(70)],180 µM,,
CN1CCN(c2ccc(COc3ccc(C(=O)c4ccc(OC5CCCC5)cc4O)cc3CCC(=O)O)cc2)C(=O)C1=O [49(76)],380 µM,,
O=C(O)CCc1cc(C(=O)c2ccc(OC3CCCC3)cc2O)ccc1OCc1nc2cc(C(=O)O)ccc2s1 [49(77)],380 µM,,
"CCOC(=O)c1ccc(COc2ccc(C(=O)c3ccc(OC4CCCC4)cc3O)cc2CCC(=O)O)cc1OC [54(2), 3-(5-[4-(cyclopentyloxy)-2-hydroxybenzoyl]-2-{[4-(ethoxycarbonyl)-3-methoxybenzyl]oxy}phenyl) propanoic acid]",,78%,65%
"CCOC(=O)CCc1cc(C(=O)c2ccc(OCC(C)C)cc2O)ccc1OCc1ccc(C(=O)O)cc1 [72(1), 4-{[2-(3-ethoxy-3-oxopropyl)-4-(2-hydroxy-4-isobutoxybenzoyl)phenoxy]methyl} benzoic acid]",240 µM,,
"O=C(O)CCc1cc(C(=O)c2ccc(OC3CCCC3)cc2O)ccc1OCc1ccc2c(O)noc2c1 [Example 35, 3-{5-[4-(cyclopentyloxy)-2-hydroxybenzoyl]-2-[(3-hydroxyl-1,2-benzisoxazol-6-yl)methoxy]phenyl}propanoic acid]",290 µM,92%,76%
"O=C(O)CCc1cc(C(=O)c2ccc(OC3CCCC3)cc2O)ccc1OCc1ccc(C(=O)O)cc1 [Example 44, 4-({2-(2-carboxyethyl)-4-[4-(cyclopentyloxy)-2-hydroxybenzoyl]phenoxy}methyl) benzoic acid]",420 µM,,
"O=C(O)CCc1cc(C(=O)c2ccc(OC3CCCC3)cc2O)ccc1OCc1csc2c(C(=O)O)cccc12 [Example 45, 3-({2-(2-carboxyethyl)-4-[4-(cyclopentyloxy)-2-hydroxybenzoyl]phenoxy}methyl)-1-benzothiophene-7-carboxilic acid]",140 µM,81%,55%
"O=C(O)/C=C/c1ccc(COc2ccc(C(=O)c3ccc(OC4CCCC4)cc3O)cc2CCC(=O)O)cc1 [Example 46, (E)-3-(4-{[4-[4-(cyclopentyloxy)-2-hydroxybenzoyl]-2-(3-hydroxy-3-oxopropyl)phenoxy]methyl}phenyl)-2-propenoic acid]",330 µM,,
"O=C(O)CCc1cc(C(=O)c2ccc(OC3CCCC3)cc2O)ccc1OCc1ccc(-c2cc(O)no2)cc1 [Example 47, 3-(5-[4-(cyclopentyloxy)-2-hydroxybenzoyl]-2-{[4-(3-hydroxy-5-isoxazolyl)benzyl]oxy}phenyl) propanoic acid]",170 µM,,
"COc1cc(COc2ccc(C(=O)c3ccc(OC4CCCC4)cc3O)cc2CCC(=O)O)ccc1C(=O)O [Example 48, 4-({2-(2-carboxyethyl)-4-[4-(cyclopentyloxy)-2-hydroxybenzoyl]phenoxy}methyl)-2-methoxybenzoic acid]",700 µM,64%,57%
"O=C(CCc1cc(C(=O)c2ccc(OC3CCCC3)cc2O)ccc1OCc1ccc2c(O)noc2c1)OCCN1CCOCC1 [Example 76, 2-(4-morpholinyl) ethyl 3-{5-[4-(cyclopentyloxy)-2-hydroxybenzoyl]-2-[(3-hydroxy-1,2-benzisoxazol-6-yl)methoxy]phenyl} propanoate]",,99%,90%
